Experimental findings from patent publication US20230123334A1, “AMINO LIPID COMPOUND, PREPARATION METHOD THEREFOR, AND APPLICATION THEREOF” (SHENZHEN SHENXIN BIOTECHNOLOGY CO., LTD., priority 2020, published 2023) are described below.

The test system of test [1] is HEK293 cells. In words: Preliminary screening as DNA vectors, GFP transfection of HEK293 cells. It counts as cell-based. The conditions noted are these: HEK293 cells; lipid/DOPE liposome with 75 ng plasmid DNA (psin-EGFP-IRES-Puro); number of cells expressing GFP divided by total number of nuclei (Hoechst). Summed up:
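First, amino lipid and DOPE were vortexed in sodium acetate buffer (pH 5.6) to form liposomes. Next, these were held with 75 ng EGFP plasmid at room temperature for 30 min. Finally, HEK293 cells were added, cultured at 37° C., Hoechst-stained, and GFP+/total nuclei scored by imaging.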

The test system of test [2] is HEK293 cells. In words: Preliminary screening as mRNA vectors, EGFP mRNA transfection of HEK293 cells. In kind it is cell-based. Conditions: HEK293 cells, 96-well plates, EGFP mRNA 50 ng per well; percentage of GFP fluorescent cells relative to total number of cells (Hoechst). Summed up: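 Screening format: EGFP mRNA transfection (50 ng/well) into HEK293 in 10% FBS-supplemented DMEM. Percent green fluorescent cells, normalised to Hoechst nuclear count, gave the value; Lipofectamine2000 was the reference transfectant.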

In the case of `CCCCCCCCCCCCCCCSc1nc(NCCCN(C)C)nc(SCCCCCCCC)n1` [Compound S8S15D6], the “Absolute DNA transfection efficiency in HEK293 cells” value (“Absolute DNA transfection efficiency” for short) with HEK293 cells [1] stood at 24.5%. For the same compound, the “Absolute mRNA transfection efficiency in HEK293 cells” value (shortened to “Absolute mRNA transfection efficiency”) in the test on HEK293 cells [2] came out at 45.0%.
In the same order, the values of `CCCCCCCCCCCCCCCSc1nc(NCCN(CC)CC)nc(SCCCCCCCC)n1` [Compound S8S15D7] are 13.8% and 0.0%.
As for `CCCCCCCCCCCCCCCSc1nc(NCCCN2CCOCC2)nc(SCCCCCCCC)n1` [Compound S8S15D8], the “Absolute DNA transfection efficiency” value in the test on HEK293 cells [1] stood at 23.0%. For the same compound, the “Absolute mRNA transfection efficiency” value in the test on HEK293 cells [2] is reported as 8.0%.
Regarding `CCCCCCCCCCCCCCCSc1nc(NCCCN2CCN(C)CC2)nc(SCCCCCCCC)n1` [Compound S8S15D9], the “Absolute DNA transfection efficiency” value with HEK293 cells [1] is 13.9%. The “Absolute mRNA transfection efficiency” value with HEK293 cells [2] amounted to 22.0%.
The like results for `CCCCCCCCCCCCCCCSc1nc(NCC2CCN(C)CC2)nc(SCCCCCCCC)n1` [Compound S8S15D10] were, in that order, 32.1% and 64.0%.
For the compound `CCCCCCCCCCCCCCCCSc1nc(NCCN(C)C)nc(SCCCCCCCC)n1` [Compound S8S16D1], in the test on HEK293 cells [1], the “Absolute DNA transfection efficiency” value is on record as 4.6%. The “Absolute mRNA transfection efficiency” value in the test on HEK293 cells [2] came out at 2.2%.
The like results for `CCCCCCCCCCCCCCCCSc1nc(NCCN2CCOCC2)nc(SCCCCCCCC)n1` [Compound S8S16D2] were, in that order, 15.7% and 0.2%.
Turning to `CCCCCCCCCCCCCCCCSc1nc(NCCN2CCCC2)nc(SCCCCCCCC)n1` [Compound S8S16D3], in the test on HEK293 cells [1], the “Absolute DNA transfection efficiency” value amounted to 20.7%. Further, the “Absolute mRNA transfection efficiency” value with HEK293 cells [2] was 37.3%.
In the same order, the values of `CCCCCCCCCCCCCCCCSc1nc(NCCN2CCCCC2)nc(SCCCCCCCC)n1` [Compound S8S16D4] are 10.2% and 2.1%.
In the same order, the values of `CCCCCCCCCCCCCCCCSc1nc(NCCN2CCN(C)CC2)nc(SCCCCCCCC)n1` [Compound S8S16D5] are 3.7% and 20.5%.
The like results for `CCCCCCCCCCCCCCCCSc1nc(NCCCN(C)C)nc(SCCCCCCCC)n1` [Compound S8S16D6] were, in that order, 33.0% and 61.0%.
In the case of `CCCCCCCCCCCCCCCCSc1nc(NCCN(CC)CC)nc(SCCCCCCCC)n1` [Compound S8S16D7], the “Absolute DNA transfection efficiency” value in the test on HEK293 cells [1] was found to be 11.8%. The “Absolute mRNA transfection efficiency” value in the test on HEK293 cells [2] is 0.5%.
In the same order, the values of `CCCCCCCCCCCCCCCCSc1nc(NCCCN2CCOCC2)nc(SCCCCCCCC)n1` [Compound S8S16D8] are 28.6% and 4.4%.
In the same order, the values of `CCCCCCCCCCCCCCCCSc1nc(NCC2CCN(C)CC2)nc(SCCCCCCCC)n1` [Compound S8S16D10] are 75.2% and 98.3%.
In the same order, the values of `CCCCCCCCCCCCCCCCCCSc1nc(NCCN(C)C)nc(SCCCCCCCC)n1` [Compound S8S18D1] are 7.6% and 3.9%.
For `CCCCCCCCCCCCCCCCCCSc1nc(NCCN2CCOCC2)nc(SCCCCCCCC)n1` [Compound S8S18D2], in the test on HEK293 cells [1], the “Absolute DNA transfection efficiency” value was 0.9%. Besides, the “Absolute mRNA transfection efficiency” value with HEK293 cells [2] is 0.0%.
Turning to `CCCCCCCCCCCCCCCCCCSc1nc(NCCN2CCCC2)nc(SCCCCCCCC)n1` [Compound S8S18D3], in the test on HEK293 cells [1], the “Absolute DNA transfection efficiency” value is given as 14.3%. Besides, the “Absolute mRNA transfection efficiency” value in the test on HEK293 cells [2] is 61.5%.
Take `CCCCCCCCCCCCCCCCCCSc1nc(NCCN2CCCCC2)nc(SCCCCCCCC)n1` [Compound S8S18D4]: the “Absolute DNA transfection efficiency” value in the test with HEK293 cells [1] came to 15.8%. Further, in the test on HEK293 cells [2], the “Absolute mRNA transfection efficiency” value stood at 2.0%.
Turning to `CCCCCCCCCCCCCCCCCCSc1nc(NCCN2CCN(C)CC2)nc(SCCCCCCCC)n1` [Compound S8S18D5], in the test with HEK293 cells [1], the “Absolute DNA transfection efficiency” value is reported as 9.6%. Besides, the “Absolute mRNA transfection efficiency” value in the test on HEK293 cells [2] was found to be 27.5%.
In the same order, the values of `CCCCCCCCCCCCCCCCCCSc1nc(NCCCN(C)C)nc(SCCCCCCCC)n1` [Compound S8S18D6] are 8.2% and 19.1%.
In the same order, the values of `CCCCCCCCCCCCCCCCCCSc1nc(NCCN(CC)CC)nc(SCCCCCCCC)n1` [Compound S8S18D7] are 9.2% and 3.8%.
In the same order, the values of `CCCCCCCCCCCCCCCCCCSc1nc(NCCCN2CCOCC2)nc(SCCCCCCCC)n1` [Compound S8S18D8] are 18.7% and 4.2%.
As for `CCCCCCCCCCCCCCCCCCSc1nc(NCCCN2CCN(C)CC2)nc(SCCCCCCCC)n1` [Compound S8S18D9], the “Absolute DNA transfection efficiency” value in the test with HEK293 cells [1] came out at 17.7%. Besides, the “Absolute mRNA transfection efficiency” value in the test with HEK293 cells [2] came out at 28.1%.
In the same order, the values of `CCCCCCCCCCCCCCCCCCSc1nc(NCC2CCN(C)CC2)nc(SCCCCCCCC)n1` [Compound S8S18D10] are 19.3% and 59.6%.
On to `CCCCCCCCCSc1nc(NCCN(C)C)nc(SCCCCCCCCC)n1` [Compound S9S9D1], for which the “Absolute DNA transfection efficiency” value in the test with HEK293 cells [1] turned out to be 12.9%. In addition, the “Absolute mRNA transfection efficiency” value in the test with HEK293 cells [2] stood at 0.8%.
With `CCCCCCCCCSc1nc(NCCN2CCOCC2)nc(SCCCCCCCCC)n1` [Compound S9S9D2], the “Absolute DNA transfection efficiency” value with HEK293 cells [1] came out at 6.8%. For the same compound, the “Absolute mRNA transfection efficiency” value in the test on HEK293 cells [2] is given as 3.1%.
Take `CCCCCCCCCSc1nc(NCCN2CCCC2)nc(SCCCCCCCCC)n1` [Compound S9S9D3]: the “Absolute DNA transfection efficiency” value in the test on HEK293 cells [1] came out at 11.9%. Moreover, the “Absolute mRNA transfection efficiency” value in the test with HEK293 cells [2] is listed as 4.5%.
`CCCCCCCCCSc1nc(NCCN2CCCCC2)nc(SCCCCCCCCC)n1` [Compound S9S9D4]: in the test with HEK293 cells [1], the “Absolute DNA transfection efficiency” value is reported as 14.5%. Besides, the “Absolute mRNA transfection efficiency” value in the test with HEK293 cells [2] was 2.1%.
The like results for `CCCCCCCCCSc1nc(NCCN2CCN(C)CC2)nc(SCCCCCCCCC)n1` [Compound S9S9D5] were, in that order, 12.5% and 37.1%.
The like results for `CCCCCCCCCSc1nc(NCCCN(C)C)nc(SCCCCCCCCC)n1` [Compound S9S9D6] were, in that order, 5.6% and 33.0%.
In the case of `CCCCCCCCCSc1nc(NCCN(CC)CC)nc(SCCCCCCCCC)n1` [Compound S9S9D7], the “Absolute DNA transfection efficiency” value with HEK293 cells [1] was found to be 32.6%. In addition, the “Absolute mRNA transfection efficiency” value with HEK293 cells [2] is reported as 3.6%.
Turning to `CCCCCCCCCSc1nc(NCCCN2CCOCC2)nc(SCCCCCCCCC)n1` [Compound S9S9D8], the “Absolute DNA transfection efficiency” value in the test with HEK293 cells [1] turned out to be 19.1%. For the same compound, the “Absolute mRNA transfection efficiency” value in the test with HEK293 cells [2] turned out to be 14.8%.
In the same order, the values of `CCCCCCCCCSc1nc(NCCCN2CCN(C)CC2)nc(SCCCCCCCCC)n1` [Compound S9S9D9] are 19.3% and 19.3%.
